This is an account of results in ChEMBL document CHEMBL3991601, “The target landscape of clinical kinase drugs” (Science, 2017).

The source made the active and inactive calls. A value given as a limit tells only on which side of the number the result lay.

As usually defined, the Kd is the concentration at which binding is half-saturated.

For assay [1], the target named is T1, Adenine phosphoribosyltransferase (Homo sapiens, UniProt P07741).
T1 sequence (P07741 whole entry): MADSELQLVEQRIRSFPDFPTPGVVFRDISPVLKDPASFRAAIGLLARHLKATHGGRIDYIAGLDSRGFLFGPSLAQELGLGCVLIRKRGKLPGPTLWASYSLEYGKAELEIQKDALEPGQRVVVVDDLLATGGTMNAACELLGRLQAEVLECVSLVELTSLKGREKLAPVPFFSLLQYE

The next assay deals with T2, Aurora kinase A (Homo sapiens, UniProt O14965).
T2 sequence (O14965 whole entry): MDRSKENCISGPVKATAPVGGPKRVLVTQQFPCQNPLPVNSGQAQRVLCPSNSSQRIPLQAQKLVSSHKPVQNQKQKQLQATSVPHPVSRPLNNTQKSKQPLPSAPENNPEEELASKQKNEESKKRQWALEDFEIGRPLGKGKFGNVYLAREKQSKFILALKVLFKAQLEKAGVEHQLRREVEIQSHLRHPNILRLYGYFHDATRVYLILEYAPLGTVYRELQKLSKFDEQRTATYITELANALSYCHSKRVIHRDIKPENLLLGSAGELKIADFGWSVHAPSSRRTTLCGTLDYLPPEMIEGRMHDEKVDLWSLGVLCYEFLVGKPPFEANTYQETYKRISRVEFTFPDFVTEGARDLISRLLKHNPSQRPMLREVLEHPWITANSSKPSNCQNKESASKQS

The target of assay [2] is Serine/threonine-protein kinase MRCK gamma (Homo sapiens, UniProt Q6DT37).
Assay [3] concerns the target T3, Cyclin-dependent kinase-like 5 (Homo sapiens, UniProt O76039).
T3 sequence (O76039 whole entry): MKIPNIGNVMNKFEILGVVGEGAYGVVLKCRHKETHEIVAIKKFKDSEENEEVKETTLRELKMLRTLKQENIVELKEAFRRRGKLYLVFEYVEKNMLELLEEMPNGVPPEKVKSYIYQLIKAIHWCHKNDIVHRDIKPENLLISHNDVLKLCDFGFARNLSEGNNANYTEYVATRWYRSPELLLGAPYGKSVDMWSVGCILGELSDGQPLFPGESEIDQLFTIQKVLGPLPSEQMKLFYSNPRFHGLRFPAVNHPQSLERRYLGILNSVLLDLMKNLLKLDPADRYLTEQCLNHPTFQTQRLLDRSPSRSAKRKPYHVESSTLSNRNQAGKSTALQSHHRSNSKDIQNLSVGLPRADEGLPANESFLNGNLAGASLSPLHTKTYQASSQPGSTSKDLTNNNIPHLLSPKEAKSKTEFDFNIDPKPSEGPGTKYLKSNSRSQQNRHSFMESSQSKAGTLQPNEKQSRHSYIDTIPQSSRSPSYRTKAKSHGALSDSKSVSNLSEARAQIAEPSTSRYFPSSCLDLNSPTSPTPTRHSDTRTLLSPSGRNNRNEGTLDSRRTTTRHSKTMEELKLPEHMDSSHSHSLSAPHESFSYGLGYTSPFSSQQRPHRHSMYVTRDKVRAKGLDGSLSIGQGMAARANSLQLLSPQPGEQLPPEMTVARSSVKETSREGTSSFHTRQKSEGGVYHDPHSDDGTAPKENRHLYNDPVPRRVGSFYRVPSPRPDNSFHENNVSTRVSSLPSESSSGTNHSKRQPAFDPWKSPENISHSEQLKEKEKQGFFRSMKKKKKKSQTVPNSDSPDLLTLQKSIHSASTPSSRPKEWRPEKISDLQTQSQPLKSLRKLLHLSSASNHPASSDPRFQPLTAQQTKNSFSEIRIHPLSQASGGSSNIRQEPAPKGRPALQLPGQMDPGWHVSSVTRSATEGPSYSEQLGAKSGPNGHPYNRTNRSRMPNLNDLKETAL

For assay [4], the target named is Dual specificity protein kinase CLK1 (Homo sapiens, UniProt P49759).
Chain of Dual specificity protein kinase CLK1 (P49759 whole entry): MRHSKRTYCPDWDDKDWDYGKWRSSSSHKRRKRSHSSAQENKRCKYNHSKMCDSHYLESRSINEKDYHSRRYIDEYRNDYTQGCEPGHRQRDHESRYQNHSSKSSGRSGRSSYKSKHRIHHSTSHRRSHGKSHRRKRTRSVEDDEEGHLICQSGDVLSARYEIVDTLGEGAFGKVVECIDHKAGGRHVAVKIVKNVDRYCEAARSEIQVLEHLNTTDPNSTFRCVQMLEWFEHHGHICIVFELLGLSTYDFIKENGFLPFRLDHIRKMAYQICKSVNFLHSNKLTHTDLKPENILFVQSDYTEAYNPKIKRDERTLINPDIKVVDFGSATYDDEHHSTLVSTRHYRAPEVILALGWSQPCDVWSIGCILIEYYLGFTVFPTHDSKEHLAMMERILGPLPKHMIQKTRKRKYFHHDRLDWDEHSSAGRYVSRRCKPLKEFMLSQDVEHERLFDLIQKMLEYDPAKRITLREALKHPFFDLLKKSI
Another assay deals with Midasin (Homo sapiens, UniProt Q9NU22).
Assay [5] deals with cAMP-dependent protein kinase catalytic subunit beta (Homo sapiens, UniProt P22694).
Assay [6] concerns the target Proto-oncogene tyrosine-protein kinase receptor Ret (Homo sapiens, UniProt P07949).
Assay [7] concerns the target Proto-oncogene tyrosine-protein kinase Src (Homo sapiens, UniProt P12931).
Assay [8] deals with Dual specificity testis-specific protein kinase 2 (Homo sapiens, UniProt Q96S53).
Chain of Dual specificity testis-specific protein kinase 2 (Q96S53 whole entry, the tested form may be a part): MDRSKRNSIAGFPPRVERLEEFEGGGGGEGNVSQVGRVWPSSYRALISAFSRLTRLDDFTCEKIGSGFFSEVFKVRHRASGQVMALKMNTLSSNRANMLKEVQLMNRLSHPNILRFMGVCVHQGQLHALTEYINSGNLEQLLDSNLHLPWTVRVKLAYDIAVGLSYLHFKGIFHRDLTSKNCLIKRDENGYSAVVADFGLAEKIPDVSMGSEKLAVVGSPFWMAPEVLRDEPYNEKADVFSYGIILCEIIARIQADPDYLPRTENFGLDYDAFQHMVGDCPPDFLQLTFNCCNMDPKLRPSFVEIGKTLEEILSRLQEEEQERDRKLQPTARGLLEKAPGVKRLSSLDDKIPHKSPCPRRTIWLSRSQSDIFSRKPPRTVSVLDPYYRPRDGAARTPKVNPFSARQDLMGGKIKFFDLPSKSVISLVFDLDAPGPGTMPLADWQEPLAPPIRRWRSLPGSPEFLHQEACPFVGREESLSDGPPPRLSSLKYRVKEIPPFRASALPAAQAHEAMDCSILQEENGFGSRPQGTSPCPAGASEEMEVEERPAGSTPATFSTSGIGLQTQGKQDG
Assay [9] deals with Uncharacterized aarF domain-containing protein kinase 5 (Homo sapiens, UniProt Q3MIX3).
Chain of Uncharacterized aarF domain-containing protein kinase 5 (Q3MIX3 whole entry, the tested form may be a part): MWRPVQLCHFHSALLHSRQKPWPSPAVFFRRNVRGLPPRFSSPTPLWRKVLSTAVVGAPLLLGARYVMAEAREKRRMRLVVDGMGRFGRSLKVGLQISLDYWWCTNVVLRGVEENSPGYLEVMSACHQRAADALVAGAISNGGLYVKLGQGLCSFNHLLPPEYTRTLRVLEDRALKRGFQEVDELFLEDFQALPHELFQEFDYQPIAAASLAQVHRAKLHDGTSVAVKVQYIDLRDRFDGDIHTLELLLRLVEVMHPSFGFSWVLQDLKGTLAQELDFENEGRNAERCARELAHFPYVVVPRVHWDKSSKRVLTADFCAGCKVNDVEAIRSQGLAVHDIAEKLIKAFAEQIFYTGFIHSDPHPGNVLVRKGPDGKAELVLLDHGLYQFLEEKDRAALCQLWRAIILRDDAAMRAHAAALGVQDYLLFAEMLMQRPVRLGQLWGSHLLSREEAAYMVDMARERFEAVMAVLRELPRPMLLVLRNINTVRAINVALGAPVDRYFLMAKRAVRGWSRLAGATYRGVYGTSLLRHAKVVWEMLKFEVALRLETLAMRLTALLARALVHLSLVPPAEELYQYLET
The target in assay [10] is Serine/threonine-protein kinase PAK 6 (Homo sapiens, UniProt Q9NQU5).
Chain of Serine/threonine-protein kinase PAK 6 (Q9NQU5 whole entry, the tested form may be a part): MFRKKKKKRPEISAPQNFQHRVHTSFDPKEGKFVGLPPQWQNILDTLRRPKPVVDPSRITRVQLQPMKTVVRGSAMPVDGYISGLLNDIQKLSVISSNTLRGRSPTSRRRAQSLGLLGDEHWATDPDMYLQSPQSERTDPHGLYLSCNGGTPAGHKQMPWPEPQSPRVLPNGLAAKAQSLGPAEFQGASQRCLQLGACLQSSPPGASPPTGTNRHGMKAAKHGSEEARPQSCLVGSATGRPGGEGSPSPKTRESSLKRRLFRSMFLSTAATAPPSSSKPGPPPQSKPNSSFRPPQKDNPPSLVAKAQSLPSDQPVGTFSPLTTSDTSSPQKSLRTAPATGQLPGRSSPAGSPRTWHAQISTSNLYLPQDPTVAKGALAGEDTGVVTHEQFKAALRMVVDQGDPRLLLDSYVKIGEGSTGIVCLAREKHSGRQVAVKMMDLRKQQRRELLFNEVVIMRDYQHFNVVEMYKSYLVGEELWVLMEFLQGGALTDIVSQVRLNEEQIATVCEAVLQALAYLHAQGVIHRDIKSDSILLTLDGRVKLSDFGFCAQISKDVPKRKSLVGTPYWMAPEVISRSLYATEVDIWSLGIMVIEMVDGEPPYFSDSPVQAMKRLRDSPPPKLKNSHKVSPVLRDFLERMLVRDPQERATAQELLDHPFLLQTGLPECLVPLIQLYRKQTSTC
Assay [11] addresses PAS domain-containing serine/threonine-protein kinase (Homo sapiens, UniProt Q96RG2).
The target in assay [12] is Cyclin-dependent kinase 17 (Homo sapiens, UniProt Q00537).
Chain of Cyclin-dependent kinase 17 (Q00537 whole entry): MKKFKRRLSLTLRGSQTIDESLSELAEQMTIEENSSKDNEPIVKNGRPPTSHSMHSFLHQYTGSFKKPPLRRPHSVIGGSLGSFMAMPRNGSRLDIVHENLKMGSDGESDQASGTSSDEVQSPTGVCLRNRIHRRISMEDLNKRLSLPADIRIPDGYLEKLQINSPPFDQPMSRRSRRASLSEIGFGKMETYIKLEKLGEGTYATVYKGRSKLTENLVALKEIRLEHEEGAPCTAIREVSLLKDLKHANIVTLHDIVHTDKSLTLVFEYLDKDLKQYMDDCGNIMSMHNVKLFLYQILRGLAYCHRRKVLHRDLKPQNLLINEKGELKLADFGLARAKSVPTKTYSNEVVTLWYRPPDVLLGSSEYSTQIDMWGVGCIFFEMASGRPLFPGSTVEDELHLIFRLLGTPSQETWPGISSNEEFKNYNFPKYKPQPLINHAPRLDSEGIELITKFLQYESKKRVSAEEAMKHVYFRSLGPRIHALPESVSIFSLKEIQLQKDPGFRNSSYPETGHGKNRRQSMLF
For assay [13], the target named is Dual specificity protein kinase CLK2 (Homo sapiens, UniProt P49760).
Chain of Dual specificity protein kinase CLK2 (P49760 whole entry): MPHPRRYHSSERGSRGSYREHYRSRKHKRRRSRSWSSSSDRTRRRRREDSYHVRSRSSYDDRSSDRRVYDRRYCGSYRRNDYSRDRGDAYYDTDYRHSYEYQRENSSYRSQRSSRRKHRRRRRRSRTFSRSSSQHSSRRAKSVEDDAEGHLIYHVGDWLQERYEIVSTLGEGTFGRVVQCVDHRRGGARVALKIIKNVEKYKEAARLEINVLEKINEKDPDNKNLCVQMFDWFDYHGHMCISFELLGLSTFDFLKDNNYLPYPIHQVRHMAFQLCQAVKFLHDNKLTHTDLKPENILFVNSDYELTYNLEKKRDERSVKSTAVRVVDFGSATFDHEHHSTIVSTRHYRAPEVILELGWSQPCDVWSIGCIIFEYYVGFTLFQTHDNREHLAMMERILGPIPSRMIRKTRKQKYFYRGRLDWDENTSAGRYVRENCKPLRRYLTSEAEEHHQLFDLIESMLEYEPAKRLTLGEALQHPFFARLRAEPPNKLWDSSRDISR
Further: in the data inactive means no Kd found up to 30 µM.

Chain of Proto-oncogene tyrosine-protein kinase Src (P12931 2-536 limits assumed): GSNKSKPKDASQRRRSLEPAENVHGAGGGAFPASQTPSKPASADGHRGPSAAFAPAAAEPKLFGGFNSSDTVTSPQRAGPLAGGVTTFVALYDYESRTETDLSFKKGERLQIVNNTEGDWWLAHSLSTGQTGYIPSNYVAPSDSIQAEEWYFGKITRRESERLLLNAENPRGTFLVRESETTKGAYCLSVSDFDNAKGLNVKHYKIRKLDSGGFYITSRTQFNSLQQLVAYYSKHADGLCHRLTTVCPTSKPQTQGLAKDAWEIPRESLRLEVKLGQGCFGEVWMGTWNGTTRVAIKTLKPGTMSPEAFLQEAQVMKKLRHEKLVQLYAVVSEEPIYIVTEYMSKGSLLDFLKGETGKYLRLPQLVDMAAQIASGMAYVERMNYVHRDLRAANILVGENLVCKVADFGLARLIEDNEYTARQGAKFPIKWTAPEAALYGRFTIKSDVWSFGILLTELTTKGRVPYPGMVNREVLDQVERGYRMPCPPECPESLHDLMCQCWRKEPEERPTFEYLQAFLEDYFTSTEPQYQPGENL
Chain of Proto-oncogene tyrosine-protein kinase receptor Ret (P07949 whole entry): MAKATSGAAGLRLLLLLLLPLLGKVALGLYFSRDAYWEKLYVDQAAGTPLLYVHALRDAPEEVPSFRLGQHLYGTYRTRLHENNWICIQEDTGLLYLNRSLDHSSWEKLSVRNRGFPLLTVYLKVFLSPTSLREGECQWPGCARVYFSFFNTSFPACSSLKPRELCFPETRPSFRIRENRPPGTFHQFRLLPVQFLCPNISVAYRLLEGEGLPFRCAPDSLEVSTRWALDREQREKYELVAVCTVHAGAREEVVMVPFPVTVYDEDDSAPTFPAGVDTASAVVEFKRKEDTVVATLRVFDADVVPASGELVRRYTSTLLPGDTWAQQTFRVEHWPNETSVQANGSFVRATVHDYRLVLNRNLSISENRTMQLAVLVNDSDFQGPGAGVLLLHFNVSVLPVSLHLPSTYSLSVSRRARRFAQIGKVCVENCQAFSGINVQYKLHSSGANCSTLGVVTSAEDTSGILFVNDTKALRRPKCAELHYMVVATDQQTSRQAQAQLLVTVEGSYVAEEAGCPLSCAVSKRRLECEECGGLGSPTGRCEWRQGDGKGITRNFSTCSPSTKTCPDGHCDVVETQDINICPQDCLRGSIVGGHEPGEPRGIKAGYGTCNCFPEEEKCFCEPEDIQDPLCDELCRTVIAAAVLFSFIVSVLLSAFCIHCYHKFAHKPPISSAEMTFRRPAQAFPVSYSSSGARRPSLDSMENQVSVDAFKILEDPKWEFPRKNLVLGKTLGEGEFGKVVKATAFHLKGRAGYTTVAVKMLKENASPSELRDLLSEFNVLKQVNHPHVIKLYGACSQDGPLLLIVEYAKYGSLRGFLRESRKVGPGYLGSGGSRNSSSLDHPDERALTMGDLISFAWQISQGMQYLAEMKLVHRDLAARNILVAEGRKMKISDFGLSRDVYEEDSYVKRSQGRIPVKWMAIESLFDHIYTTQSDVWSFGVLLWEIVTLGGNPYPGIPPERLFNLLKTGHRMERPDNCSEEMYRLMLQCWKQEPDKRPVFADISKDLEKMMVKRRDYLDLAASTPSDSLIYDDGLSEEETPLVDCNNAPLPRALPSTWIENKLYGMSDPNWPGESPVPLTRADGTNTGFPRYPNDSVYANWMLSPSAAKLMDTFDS

With `Cn1cc(-c2ccc(F)c(C(F)(F)F)c2)nc1C1CCN(c2ncnc3[nH]ncc23)CC1` [LY-2584702], the Kd (in assay [1]; at Aurora kinase A; in [2]; in assay [3]; in assay [4]; on Midasin) was > 30 µM (inactive) in each case. Further, the Kd in [5], in assay [6], in assay [7] and in assay [8] was > 30 µM (inactive) each time.

`Cc1cc(Nc2cc(N3CCN(C)CC3)nc(/C=C/c3ccccc3)n2)n[nH]1` [ENMD-2076]: the Kd (in assay [9]; in assay [1]; in assay [2]; at Midasin; in assay [10]; in [11]) was > 30 µM (inactive) in each case. In addition, the Kd in [5] and in [8] was > 30 µM (inactive) throughout.

In the case of `COC(=O)N[C@@H](C)CNc1nccc(-c2cn(C(C)C)nc2-c2cc(Cl)cc(NS(C)(=O)=O)c2F)n1` [ENCORAFENIB], the Kd (in [9]; in [1]; at Aurora kinase A; in assay [2]; in assay [12]; in assay [3]) was > 30 µM (inactive) throughout. The Kd (in [4]; in [13]; at Midasin; in assay [11]; in [5]; in assay [6]) was > 30 µM (inactive) each time. In addition, the Kd in assay [7] and in assay [8] was > 30 µM (inactive) throughout.

Turning to `CCS(=O)(=O)N1CC(CC#N)(n2cc(-c3ncnc4[nH]ccc34)cn2)C1` [BARICITINIB], the Kd was > 30 µM (inactive) in [9]; > 30 µM (inactive) in assay [1]; > 30 µM (inactive) on Aurora kinase A; > 30 µM (inactive) in assay [2]; > 30 µM (inactive) in assay [12]; 0.778 µM in assay [4]. The Kd in assay [13] is > 30 µM (inactive); on Midasin, > 30 µM (inactive); in [10], > 30 µM (inactive); in assay [11] it was > 30 µM (inactive); in [5], > 30 µM (inactive); in assay [6] it was 0.973 µM (active). Moreover, in [7], the Kd was > 30 µM (inactive).

For the compound `C[C@@H](Nc1cc(F)cc(F)c1)c1cc(C(=O)N(C)C)cc2c(=O)cc(N3CCOCC3)oc12` [AZD-8186], the Kd (at Aurora kinase A; in assay [12]; in [3]; in assay [4]; at Midasin; in [10]) was > 30 µM (inactive) in each case. For the same compound, the Kd in [5], in [6] and in assay [7] was > 30 µM (inactive) each time.

For `Cc1c(F)cc(C(=O)NC2CC2)cc1-c1ccc(C(=O)NCC(C)(C)C)cn1` [LOSMAPIMOD], the Kd (in [1]; on Aurora kinase A; in [2]; in assay [12]; in assay [4]; in assay [13]) was > 30 µM (inactive) each time. The Kd (on Midasin; in [11]; in [5]; in [6]; in [7]; in [8]) was > 30 µM (inactive) in each case.

As for `C1=C/COCc2cc(ccc2OCCN2CCCC2)Nc2nccc(n2)-c2cccc(c2)COC/1` [PACRITINIB], the Kd is > 30 µM (inactive) in assay [1]; > 30 µM (inactive) at Aurora kinase A; > 30 µM (inactive) in assay [3]; 0.138 µM in assay [4]; > 30 µM (inactive) on Midasin; > 30 µM (inactive) in assay [11]. Moreover, the Kd in assay [5], in [6] and in [7] was > 30 µM (inactive) in each case.

Consider `CNC(=O)c1ccc(C)c(-n2c(C)cc(OCc3ccc(F)cc3F)c(Br)c2=O)c1` [PH-797804], for which the Kd (in [9]; on Aurora kinase A; in assay [12]; in assay [4]; in assay [13]; at Midasin) was > 30 µM (inactive) each time. The Kd in [10], in assay [11], in [5], in assay [6] and in assay [7] was > 30 µM (inactive) in each case.

For `C[C@@H](c1ccc2nccn2c1)n1nnc2ncc(-c3cnn(C)c3)nc21` [SAVOLITINIB], the Kd (in [1]; on Aurora kinase A; in [12]; in assay [4]; in assay [13]; on Midasin) was > 30 µM (inactive) each time. The Kd in assay [5], in [6], in [7] and in [8] was > 30 µM (inactive) throughout.

As for `N[C@@H]1CCCN(c2c(/C=C3\SC(=O)NC3=O)cccc2-c2ccccc2)C1`, the Kd (in assay [9]; in assay [1]; on Aurora kinase A; in assay [2]; in assay [3]; in [13]) was > 30 µM (inactive) in each case. The Kd (on Midasin; in [5]; in [6]; in [7]) was > 30 µM (inactive) in each case.

As for `O=c1sn(-c2cccc3ccccc23)c(=O)n1Cc1ccccc1` [TIDEGLUSIB], the Kd (in [1]; on Aurora kinase A; in assay [2]; in assay [12]; in assay [3]; in [4]) was > 30 µM (inactive) throughout. The Kd (in assay [13]; on Midasin; in assay [10]; in [11]; in assay [5]; in assay [6]) was > 30 µM (inactive) each time. Also, in [7], the Kd was > 30 µM (inactive).
